Patent publication US10548898B2, “Quinazoline compounds” (Gilead Sciences, Inc., priority 2014, dated 2020)
Read-outs that look alike come from different tables or passages of the source.

Legend:
Type in all cases: cell-based
[1] = test system: HIV-1 reverse transcriptase mutant K103N; assay: High throughput cytopathic effect assay in MT-4 cells, K103N mutant; conditions: for EC50: Human immunodeficiency virus 1, MT4, 120 h, read-out: MT4 EC50 (nM) against K103N; for FC against mutant K103N: fold change of MT4 EC50 versus w.t. assay 2
How it was run: (§1)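 MT-4 cells infected 1 h at 37 °C at MOI 0.0005, then plated onto ten-point half-log compound dilutions and incubated 5 days. Cell viability read by CellTiter-Glo luminescence, normalized to AZT and DMSO controls as % CPE protection; EC50 from four-parameter fit.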

[2] = test system: HIV-1 recombinant strain encoding reverse transcriptase mutation Y188L; assay: Resistance profile against HIV-1 RT mutants in MT-2 cells, Y188L; conditions: ratio of mean EC50 mutant/WT virus
Procedure: (§2) Compounds were tested for antiviral activity against a panel of NNRTI resistant viruses. A panel of 8 clonal site-directed mutant viruses representing the major resistance development pathways against rilpivirine (“RPV”), efavirenz (“EFV”), and nevirapine (“NVP”), containing both single and double mutations within HIV-1 reverse transcriptase was employed. Further details and background can be found in Janssen et al. J. Med. Chem, 2005, 48, 1901-1909; Das et al., Proc. Nat. Acad. Sci., 2008, vol., 105, no. 5, 1466-1471; and Kuroda et al., Nature Chemistry, 2013, DOI: 10.1038/NCHEM. 1559. […] HIV-1 recombinant strains encoding reverse transcriptase mutations K103N, Y181C, Y188L, G190A, K103N/Y181C, L1001/Y181C, E138K or E138KIM 184V were constructed by site-directed mutagenesis. Wild-type and mutant viruses were prepared by transfecting infectious proviral HXB2-based cDNA clones into MT-2 cells and harvesting the cell supernatants. MT-2 cells were infected with wild-type and mutant HIV-1 strains at a multiplicity of infection (MOI) of 0.005 by gentle mixing for 3 hours at 37° C. and then added at a density of 16,667 cells per well in 50 μL complete RPMI cell culture media (containing 10% fetal bovine serum (FBS) and 10% penicillin-streptomycin) to 96-well plates containing 50 μL of a 3-fold serial dilution of test compounds in RPMI medium. After 5 days of incubation at 37° C. in a humidified incubator in the presence of 5% CO2. 100 μL of Cell Titer-Glo™ Reagent (Promega Biosciences, Inc., Madison, Wis.) was added to each well and the relative light units (RLU) measured on an Envision plate reader. […] The EC50 value was defined as the compound concentration inducing a 50% decrease in virus replication. Data analysis for the antiviral activity observed in MT-2 cells was performed using XL-Fit™ software (IDBS, Guildford, Surrey, UK) to calculate EC50 from an 8-point dose-response curve using the following equation:
(§3) [formula] where y=virus inhibition, x=drug concentration, M=maximum inhibition, H=minimum inhibition and n=Hill coefficient, EC50 values (mean±standard deviation) were calculated from at least three independent experiments performed in triplicate. The level of resistance was calculated as a ratio of the mean EC50 for each mutant/WT virus. Results are disclosed in FIG. 1 and in Tables 3 and 4 below.

[3] = test system: HIV-1 reverse transcriptase mutant Y181C; assay: High throughput cytopathic effect assay in MT-4 cells, Y181C mutant; conditions: for EC50: Human immunodeficiency virus 1, MT4, 120 h, read-out: MT4 EC50 (nM) against Y181C; for FC against mutant Y181C: fold change of MT4 EC50 versus w.t. assay 2
How it was run: as §1

[4] = test system: HIV-1 recombinant strain encoding reverse transcriptase mutation L100I/Y181C; assay: Resistance profile against HIV-1 RT mutants in MT-2 cells, L100I/Y181C; conditions: ratio of mean EC50 mutant/WT virus
Procedure: as §2, §3

[5] = test system: HIV-1 HBX2 (wild type); assay: High throughput cytopathic effect assay in MT-4 cells, wild type HIV-1
How it was run: as §1

[6] = test system: HIV-1 recombinant strain encoding reverse transcriptase mutation E138K/M184V; assay: Resistance profile against HIV-1 RT mutants in MT-2 cells, E138K/M184V; conditions: ratio of mean EC50 mutant/WT virus
Procedure: Compounds were tested for antiviral activity against a panel of NNRTI resistant viruses. A panel of 8 clonal site-directed mutant viruses representing the major resistance development pathways against rilpivirine (“RPV”), efavirenz (“EFV”), and nevirapine (“NVP”), containing both single and double mutations within HIV-1 reverse transcriptase was employed. Further details and background can be found in Janssen et al. J. Med. Chem, 2005, 48, 1901-1909; Das et al., Proc. Nat. Acad. Sci., 2008, vol., 105, no. 5, 1466-1471; and Kuroda et al., Nature Chemistry, 2013, DOI: 10.1038/NCHEM. 1559. […] HIV-1 recombinant strains encoding reverse transcriptase mutations K103N, Y181C, Y188L, G190A, K103N/Y181C, L1001/Y181C, E138K or E138KIM 184V were constructed by site-directed mutagenesis. Wild-type and mutant viruses were prepared by transfecting infectious proviral HXB2-based cDNA clones into MT-2 cells and harvesting the cell supernatants. MT-2 cells were infected with wild-type and mutant HIV-1 strains at a multiplicity of infection (MOI) of 0.005 by gentle mixing for 3 hours at 37° C. and then added at a density of 16,667 cells per well in 50 μL complete RPMI cell culture media (containing 10% fetal bovine serum (FBS) and 10% penicillin-streptomycin) to 96-well plates containing 50 μL of a 3-fold serial dilution of test compounds in RPMI medium. After 5 days of incubation at 37° C. in a humidified incubator in the presence of 5% CO2. 100 μL of Cell Titer-Glo™ Reagent (Promega Biosciences, Inc., Madison, Wis.) was added to each well and the relative light units (RLU) measured on an Envision plate reader. […] The EC50 value was defined as the compound concentration inducing a 50% decrease in virus replication. […]
as §3, with “Results are disclosed in FIG. 1 and in Tables 3 and 4 below.” left out

[7] = test system: HIV-1 recombinant strain encoding reverse transcriptase mutation Y181C; assay: Resistance profile against HIV-1 RT mutants in MT-2 cells, Y181C; conditions: ratio of mean EC50 mutant/WT virus
Procedure: as §2, §3

[8] = test system: HIV-1 recombinant strain encoding reverse transcriptase mutation K103N; assay: Resistance profile against HIV-1 RT mutants in MT-2 cells, K103N; conditions: ratio of mean EC50 mutant/WT virus
Procedure: as §2, §3

[9] = test system: HIV-1 recombinant strain encoding reverse transcriptase mutation K103N/Y181C; assay: Resistance profile against HIV-1 RT mutants in MT-2 cells, K103N/Y181C; conditions: ratio of mean EC50 mutant/WT virus
Procedure: as §2, §3

[10] = biological target: T1, hERG channels (Homo sapiens, UniProt Q12809); assay: hERG assay, whole cell recordings in CHO cell line stably expressing hERG channels; conditions: CHO cells, whole cell patch clamp; greater than values indicate the maximum achievable concentration in the assay
T1 construct: host or cells: CHO cell line stably expressing hERG
T1 sequence (Q12809 whole entry): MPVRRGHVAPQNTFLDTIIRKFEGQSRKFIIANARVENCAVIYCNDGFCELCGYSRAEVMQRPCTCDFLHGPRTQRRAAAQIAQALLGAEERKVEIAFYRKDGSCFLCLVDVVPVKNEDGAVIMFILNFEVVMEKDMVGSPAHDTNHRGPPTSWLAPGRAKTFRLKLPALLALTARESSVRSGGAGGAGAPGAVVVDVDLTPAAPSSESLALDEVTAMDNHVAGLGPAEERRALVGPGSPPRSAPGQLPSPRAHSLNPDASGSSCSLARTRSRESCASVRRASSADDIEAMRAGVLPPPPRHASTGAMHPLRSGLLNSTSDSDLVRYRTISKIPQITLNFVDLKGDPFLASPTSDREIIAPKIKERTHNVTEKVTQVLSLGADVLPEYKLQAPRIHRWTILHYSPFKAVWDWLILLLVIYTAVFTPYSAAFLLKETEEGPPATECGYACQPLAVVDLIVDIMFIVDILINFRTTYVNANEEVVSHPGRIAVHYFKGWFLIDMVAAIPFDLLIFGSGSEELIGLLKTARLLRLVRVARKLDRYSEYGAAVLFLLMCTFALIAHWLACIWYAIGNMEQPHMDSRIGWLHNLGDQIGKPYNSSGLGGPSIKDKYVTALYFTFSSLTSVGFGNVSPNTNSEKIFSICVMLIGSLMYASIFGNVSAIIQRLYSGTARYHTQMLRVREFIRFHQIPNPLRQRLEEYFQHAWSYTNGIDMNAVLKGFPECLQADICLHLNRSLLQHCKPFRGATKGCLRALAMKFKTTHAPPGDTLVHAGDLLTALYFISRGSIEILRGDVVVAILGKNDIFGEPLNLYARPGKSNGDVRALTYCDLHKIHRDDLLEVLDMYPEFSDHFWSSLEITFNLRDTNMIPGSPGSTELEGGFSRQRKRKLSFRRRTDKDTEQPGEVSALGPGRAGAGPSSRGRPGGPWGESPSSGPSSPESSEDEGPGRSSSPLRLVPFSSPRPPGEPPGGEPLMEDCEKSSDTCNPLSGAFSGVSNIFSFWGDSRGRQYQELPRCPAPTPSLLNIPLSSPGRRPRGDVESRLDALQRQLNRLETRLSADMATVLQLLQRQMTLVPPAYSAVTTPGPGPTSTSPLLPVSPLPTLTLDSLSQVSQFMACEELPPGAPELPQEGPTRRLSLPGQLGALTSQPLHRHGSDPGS
Procedure: AVIVA's CHO cell line, which stably expresses hERG channels, was used for the study. Cells were cultured in DMEM/F12 containing 10% FBS, 1% penicillin/streptomycin and 500 μg/ml G418. Before testing, cells were harvested using Accumax (Innovative Cell Technologies).
External Solution: 2 mM CaCl2; 2 mM MgCl2; 4 mM KCl; 150 mM NaCl; 10 mM Glucose; 10 mM HEPES; 305-315 mOsm; pH 7.4 (adjusted with 5M NaOH.)
Internal Solution: 140 mM KCl; 10 mM MgCl2; 6 mM EGTA; 5 mM HEPES-Na; 5 mM ATP-Mg; 295-305 mOsm; pH 7.25 (adjusted with 1M KOH).
Whole cell recordings were performed using PX 7000A (Axon Instruments) with AVIVA's SealChip™ technology. Cells were voltage clamped at a holding potential of −80 mV. The hERG current was then activated by a depolarizing step to −50 mV for 300 ms. This first step at −50 mV was used as a baseline for measuring peak amplitude of the tail current. Next, a voltage step to +20 mV was applied for 5 s to activate the channels. Finally, a step back to −50 mV for 5 s removed activation and the deactivating tail current was recorded.
All test articles were prepared from 10 mM DMSO stock solutions. Solutions were mixed by sonication for 20 min, followed by vigorous vortexing. Prior to testing, compounds were diluted to test concentrations in glass vials using External Solution. Dilutions were prepared no longer than 20 min prior to use.
After achieving whole cell configuration, cells were monitored for 90 s to assess stability and then washed with External Solution for 66 s. The voltage protocol was then applied to the cells every 12 s throughout the procedure. Only stable cells with recording parameters above threshold were allowed to enter the drug addition procedure.
External solution containing 0.1% DMSO (vehicle) was applied to the cells to establish a baseline. After allowing the current to stabilize for 3 to 10 min, test articles were applied. Test article solutions were added to cells in 4 separate additions. Cells were kept in test solution until effect of the test article reached steady state, to a maximum of 12 min. Next, 1 μM cisapride (positive control) was added. Finally, washout with External Solution was performed until the recovery current reached steady state.
Data analysis was performed using DataXpress (Axon Instruments), Clampfit (Axon Instruments) and Origin (OriginLab Corporation) software. The greater than values in Table 5 indicate the maximum achievable concentration in the assay (e.g., compounds achieving their solubility limit).

[11] = test system: HIV-1 recombinant strain encoding reverse transcriptase mutation G190A; assay: Resistance profile against HIV-1 RT mutants in MT-2 cells, G190A; conditions: ratio of mean EC50 mutant/WT virus
Procedure: as §2, §3

[12] = Human immunodeficiency virus 1, MT4, 120 h, MT-4 cells, 5 days, cytopathic effect, Cell TiterGlo, read-out: MT4 EC50 (nM) against w.t.
[13] = Human immunodeficiency virus 1, MT4, read-out: MT4 EC50 (nM) against w.t. assay 2

Compound	EC50 [1] [nM]	FC against mutant K103N [1]	Biology resistance panel-low throughput fold change (FC) Y188L [2]	EC50 [3] [nM]	FC against mutant Y181C [3]	Biology resistance panel-low throughput fold change (FC) L100I/Y181C [4]	EC50 [5, 12] [nM]	EC50 [5, 13] [nM]	Biology resistance panel-low throughput fold change (FC) E138K/M184V [6]	Biology resistance panel-low throughput fold change (FC) Y181C [7]	Biology resistance panel-low throughput fold change (FC) K103N [8]	Biology resistance panel-low throughput fold change (FC) K103N/Y181C [9]	hERG [10] [µM]	Biology resistance panel-low throughput fold change (FC) G190A [11]
Cc1cc(/C=C/C#N)cc(C)c1-c1cccc2c(=O)[nH]c(Nc3ccc(C#N)cn3)nc12 [Compound 34, (E)-6-((8-(4-(2-Cyanovinyl)-2,6-dimethylphenyl)-4-oxo-3,4-dihydroquinazolin-2-yl)amino)nicotinonitrile]	3.2	1.0	18.7	11.3	3.7	1.7	2.4	3	4.2	3.4	1.4	12.4	>3	–
Cc1cc(/C=C/C#N)cc(C)c1-c1cccc2c(N)nc(Nc3ccc(C#N)cc3)nc12 [Compound 2, (E)-4-((4-Amino-8-(4-(2-cyanovinyl)-2,6-dimethylphenyl)quinazolin-2-yl)amino)benzonitrile]	4	1.1	10.0	10.9	3.0	1.6	3.7	3.6	5.0	4.0	0.9	4.1	>1	1.6
O=C1Nc2ccc(Cl)cc2[C@@](C#CC2CC2)(C(F)(F)F)O1 [Efavirenz, reference compound]	46.4	28.9	132.5	3.8	2.3	>200	1.3	1.6	–	3.6	48.1	83.5	–	14.8
Cc1cc(/C=C/C#N)cc(C)c1Nc1ccnc(Nc2ccc(C#N)cc2)n1 [Rilpivirine, reference compound]	1.5	1.2	22.8	3.8	3.1	18.1	0.9	1.3	3.0	4.6	1.0	7.7	0.5	0.8
